# How the values were obtained:
# [1] = tested on: Bacillus subtilis U. of Ill. 10707; assay: in vitro antibiotic activity, two fold dilution test (MIC); format: cell-based; conditions: Streptomycin Assay Agar with yeast extract, pH 7.9, inoculum approx. 1×10^5
# Experimental: (§1) The in vitro antibiotic activity is determined by a two fold dilution test using Streptomycin Assay Agar with yeast extract (at pH 7.9). The inoculum of approximately 1×10^5 of the indicated test organism is delivered by a multiple inoculator. The minimum inhibitory concentrations for a representative compound, O-demethyl-3'-deoxyseldomycin factor 5 is set forth in Table II. The minimum inhibitory concentrations are expressed in micrograms per milliliter.
# [2] = tested on: Eschericha coli ATCC 26; assay: as above; format: cell-based; conditions: Streptomycin Assay Agar with yeast extract, pH 7.9, inoculum approx. 1×10^5
# Experimental: as §1
# [3] = tested on: Escherichia coli 76-2; assay: as above; format: cell-based; conditions: 762, Streptomycin Assay Agar with yeast extract, pH 7.9, inoculum approx. 1×10^5
# Experimental: as §1
# [4] = tested on: Escherichia coli NR 79; assay: as above; format: cell-based; conditions: NR79, Streptomycin Assay Agar with yeast extract, pH 7.9, inoculum approx. 1×10^5
# Experimental: as §1
# [5] = tested on: Escherichia coli R16; assay: as above; format: cell-based; conditions: Streptomycin Assay Agar with yeast extract, pH 7.9, inoculum approx. 1×10^5
# Experimental: as §1
# [6] = tested on: Escherichia coli R19; assay: as above; format: cell-based; conditions: Streptomycin Assay Agar with yeast extract, pH 7.9, inoculum approx. 1×10^5
# Experimental: as §1
# [7] = tested on: Escherichia coli R3; assay: as above; format: cell-based; conditions: Streptomycin Assay Agar with yeast extract, pH 7.9, inoculum approx. 1×10^5
# Experimental: as §1
# [8] = tested on: Escherichia coli R5; assay: as above; format: cell-based; conditions: Streptomycin Assay Agar with yeast extract, pH 7.9, inoculum approx. 1×10^5
# Experimental: as §1
# [9] = tested on: Klebsiella pneumoniae ATCC 10031; assay: as above; format: cell-based; conditions: ATCC10031, Streptomycin Assay Agar with yeast extract, pH 7.9, inoculum approx. 1×10^5
# Experimental: as §1
# [10] = tested on: Proteus stuartii ATCC 25825; assay: as above; format: cell-based; conditions: Streptomycin Assay Agar with yeast extract, pH 7.9, inoculum approx. 1×10^5
# Experimental: as §1
# [11] = tested on: Proteus vulgaris ATCC 6897; assay: as above; format: cell-based; conditions: ATCC6897, Streptomycin Assay Agar with yeast extract, pH 7.9, inoculum approx. 1×10^5
# Experimental: as §1
# [12] = tested on: Pseudomonas aeruginosa BMH#1; assay: as above; format: cell-based; conditions: Streptomycin Assay Agar with yeast extract, pH 7.9, inoculum approx. 1×10^5
# Experimental: as §1
# [13] = tested on: Pseudomonas aeruginosa KY-8512; assay: as above; format: cell-based; conditions: KY8512, Streptomycin Assay Agar with yeast extract, pH 7.9, inoculum approx. 1×10^5
# Experimental: as §1
# [14] = tested on: Pseudomonas aeruginosa PST; assay: as above; format: cell-based; conditions: Streptomycin Assay Agar with yeast extract, pH 7.9, inoculum approx. 1×10^5
# Experimental: as §1
# [15] = tested on: Staphylococcus aureus ATCC 6538P; assay: as above; format: cell-based; conditions: ATCC6538P, Streptomycin Assay Agar with yeast extract, pH 7.9, inoculum approx. 1×10^5
# Experimental: as §1
# [16] = tested on: Gram-positive and Gram-negative organisms; conditions: Staphylococcus aureus, Klebsiella pneumoniae, Escherchia coli and Proteus species; cited from earlier work
Compound,MIC [1] [µg/mL],MIC [2] [µg/mL],MIC [3] [µg/mL],MIC [4] [µg/mL],MIC [5] [µg/mL],MIC [6] [µg/mL],MIC [7] [µg/mL],MIC [8] [µg/mL],MIC [9] [µg/mL],MIC [10] [µg/mL],MIC [11] [µg/mL],MIC [12] [µg/mL],MIC [13] [µg/mL],MIC [14] [µg/mL],MIC [15] [µg/mL],antibiotic activity [16]
"NC[C@@H]1CC[C@@H](N)[C@@H](O[C@H]2[C@H](O)[C@@H](OC3OCC(O)C(N)C3N)[C@H](N)C[C@@H]2N)O1 (stereo partly shown) [O-demethyl-3'-deoxyseldomycin factor 5, O-Demethyl-3'-deoxyseldomycin factor 5]",0.01,0.16,0.16,0.16,0.4,0.16,2.5,0.8,0.04,2.5,0.31,0.63,1.25,720,0.02,
COC1COC(O[C@@H]2[C@@H](O)[C@H](O[C@H]3O[C@H](CN)C[C@H](O)[C@H]3N)[C@@H](N)C[C@H]2N)C(N)C1N (stereo partly shown) [Seldomycin factor 5],,,,,,,,,,,,,,,,"highly active, broad-spectrum antibiotic effective against both Gram-positive and Gram-negative organisms"

# Reference: patent US4239752A, “O-Demethylseldomycin factor 5 derivatives” (Abbott Laboratories, priority 1979, dated 1980)
